Test results taken from article PMC9822155, “Synthesis and Antiproliferative Activity against Cancer Cells of Indole-Aryl-Amide Derivatives” (Molecules, 2022).

Tests used:
κ-OR = biological target: T1, κ-OR (Homo sapiens, UniProt P41145); assay: Radioligand binding assay, κ-OR ([3H]U-69593 displacement); conditions: [3H]U-69593, membranes of CHO cells with human recombinant OR; ± SEM (n ≥ 3)
T1 construct: purchased PerkinElmer (Krakow, Poland); host or cells: CHO cells (membranes)
Description: In order to evaluate the affinity of the compounds for μ-, δ-, κ-ORs, radioligand binding assays were performed. Displacement of radioligands, [^3H]DAMGO (μ-OR selective), [^3H]deltorphin-2 (δ-OR selective), and [^3H]U-69593 (κ-OR selective) by the synthetic analogs was investigated in the commercial membranes of CHO cells transfected with human recombinant ORs. […] Due to the modest receptor affinities, the functional activity of the compounds was not investigated.
Opioid radioligands, [^3H]DAMGO, [^3H]deltorphin-2 and [^3H]U-69593, and human recombinant opioid receptors came from PerkinElmer (Krakow, Poland). GF/B glass fiber strips were purchased from Whatman (Brentford, UK).
To determine the affinity of peptide analogs at the respective receptors, competition binding experiments were performed. Commercial membranes of CHO cells stably expressing human opioid receptors and the competing radioligands, [^3H]DAMGO, [^3H]deltorphin-2, and [^3H]U-69593 for μ-OR, δ-OR, and κ-OR, respectively, were used. Membranes were incubated in 0.5 mL volume of 50 mM Tris/HCl (pH = 7.4), 0.5% bovine serum albumin (BSA), with a number of peptidase inhibitors (bacitracin, bestatin, captopril) and various concentrations of radioligands for 2 h at 25 °C. Non-specific binding was assessed in the presence of […]. Three independent experiments for each assay were carried out in duplicate. The data were analyzed by a nonlinear least square regression analysis computer program Graph Pad PRISM 6.0 (Graph Pad Software Inc., San Diego, CA, USA). The IC50 values were determined from the logarithmic concentration-displacement curves, and the values of the inhibitory constants (Ki) were calculated according to the equation of Cheng and Prusoff.

[1] = system: IGROV-1 (human ovarian carcinoma) cells; assay: MTT viability assay, IGROV-1; type: cell-based; conditions: 24 h
Description: To investigate whether the compounds have an antitumor activity, we performed in vitro viability assays against a panel of cancer cell lines: HT29 (human colorectal adenocarcinoma), HeLa (human cervical carcinoma), IGROV-1 (human ovarian carcinoma), MCF7 (human breast cancer), PC-3 (human prostate adenocarcinoma), and Jurkat J6 (human […]). The I407 (human embryonic intestinal) and 3T3 (mouse embryonic fibroblast) cells were used as controls. The growth inhibitory concentration was determined by incubating the cells with increasing concentrations (0.01–500 μM) of the compounds for 24 h. Data obtained from cell growth assays were elaborated to assess the concentration of cell viability (IC50) and selectivity indices (SI), and the results are shown in Table 2 and Table 3, respectively.
HT29 human colorectal adenocarcinoma cells, HeLa human cervix adenocarcinoma cells, MCF7 human breast adenocarcinoma cells, PC-3 human prostate adenocarcinoma cells, J6 Jurkat Clone E6-1 acute T cell leukemia, the healthy I407 human intestine cells, and mouse embryonic fibroblast 3T3 fibroblasts as controls cell lines were purchased from American Type Culture Collection (ATCC, Manassas, VA). The human ovarian cancer cell line IGROV1 has been kindly provided by Prof. Colnaghi (Istituto Nazionale Tumori (IRCCS) (Milano, Italy). Cells were cultured in RPMI 1640 medium (Labtek Eurobio, Milan, Italy), supplemented with 10% FCS (Euroclone, Milano, Italy) and 2 mM L-glutamine (Sigma-Aldrich, Milano, Italy), at 37 °C, and a 5% CO2 atmosphere. The compounds were dissolved in DMSO in a 30–40 mM stock solution. In cell treatments, the final DMSO concentration never exceeded 0.1%.
Cells were seeded at 1.5 × 10^4 cells/well in a 96-well culture plastic plate (Sarsted, Milan, Italy), and after 24 h of growth were exposed to increasing concentrations of each distinct compound (from 0.010 μM to 500 μM) solubilized in RPMI 1640 medium. MTT assay was performed according to the literature. In brief, after 24 h of treatment, the culture medium was replaced with 0.1 mL of 3-(4,5-dimethylthiazolyl-2)-2,5-diphenyltetrazolium bromide (MTT, Sigma-Aldrich, Milano, Italy) dissolved in PBS at the concentration of 0.2 mg/mL, and samples were incubated for 2 h at 37 °C. The absorbance at 570 nm was measured using a multiwell plate reader (Tecan, Männemorf, Switzerland), and data were analyzed by Prism GraphPad software, and expressed as IC50 μM.

T1 sequence (P41145 whole entry): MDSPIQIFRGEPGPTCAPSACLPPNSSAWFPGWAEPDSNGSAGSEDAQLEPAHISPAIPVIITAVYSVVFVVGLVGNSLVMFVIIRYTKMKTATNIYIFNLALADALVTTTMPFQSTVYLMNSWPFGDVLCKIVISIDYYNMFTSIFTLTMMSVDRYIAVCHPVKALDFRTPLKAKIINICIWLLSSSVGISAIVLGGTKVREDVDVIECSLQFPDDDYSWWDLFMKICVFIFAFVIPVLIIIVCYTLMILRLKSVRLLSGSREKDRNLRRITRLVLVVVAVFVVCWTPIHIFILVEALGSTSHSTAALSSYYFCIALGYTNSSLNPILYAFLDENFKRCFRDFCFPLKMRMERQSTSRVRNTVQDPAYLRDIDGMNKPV

Ki (κ-OR): 3.8 ± 0.52 µM | Ki (µM) κ-OR (κ-OR): low μM range | IC50 [1]: > 500 µM
Compound: Nc1ccc(CN(Cc2ccc(O)cc2)C(=O)Cc2c[nH]c3ccccc23)cc1 [Compound 5]
